For one experiment, the system named is C57BL/6J mice. Description: Hot water tail immersion test, acute co-administration with 5 mg/kg morphine. The conditions noted are these: for lowest dose that significantly increased latency: plus 5 mg/kg morphine s.c. Type of experiment: in vivo. As to the method:
We were next interested in evaluating the effects of EU93-108 when given acutely in combination with morphine. 5 mg/kg morphine was chosen because this dose elicited an approximately half-maximal response in our initial morphine dose–response curve (Supporting Figure S3). This half-maximal response would allow us to see any changes in tail flick latency that EU93-108 might elicit.
Four treatment groups and one control group were used (n = 8 per group). The control group received vehicle (10% DMSO, 20% PEG, 2% DMA in water) i.p. plus 5 mg/kg morphine s.c. formulated in normal saline, and groups 1–4 were randomly assigned one dose of EU93-108 i.p. plus 5 mg/kg morphine s.c. The doses used were the same as in the intrinsic analgesia experiments.
All animal studies performed at Emory have been approved by the Institutional Animal Care and Use Committee at Emory University. Male and female C57BL/6J mice weighing between 20 and 30 g were housed five per cage and given ad libitum access to food and water. The mice were 8–10 weeks of age at the time of experimentation. Animal holding rooms operated on a 12 h dark/light cycle with the dark cycle from 7:00 pm to 7:00 am. Mice were allowed to acclimate in cages for one week after arrival. […]
Mouse weights were recorded on the day of each experiment. […] Three recordings were taken for each mouse, and each data point is expressed as the mean of the three recordings. […] The identities were not decoded until the data were analyzed.
Prism 9.3.1 software (GraphPad, San Diego, CA) was used for all data analysis and visualization. Data for intrinsic antinociception was analyzed using one-way ANOVA and Dunnett’s post hoc test for multiple comparisons where each group was compared to vehicle. Data for acute morphine potentiation experiments were analyzed using one-way ANOVA and Tukey’s post hoc test for multiple comparisons was also used, where each group mean was compared to the mean of every other group. Data for tolerance experiments were analyzed using repeated measures two-way ANOVA and Bonferroni post hoc analysis. […]

The target of another experiment is T1, Alpha1D (α1D) (Homo sapiens, UniProt P25100).
T1 sequence (P25100 1-572): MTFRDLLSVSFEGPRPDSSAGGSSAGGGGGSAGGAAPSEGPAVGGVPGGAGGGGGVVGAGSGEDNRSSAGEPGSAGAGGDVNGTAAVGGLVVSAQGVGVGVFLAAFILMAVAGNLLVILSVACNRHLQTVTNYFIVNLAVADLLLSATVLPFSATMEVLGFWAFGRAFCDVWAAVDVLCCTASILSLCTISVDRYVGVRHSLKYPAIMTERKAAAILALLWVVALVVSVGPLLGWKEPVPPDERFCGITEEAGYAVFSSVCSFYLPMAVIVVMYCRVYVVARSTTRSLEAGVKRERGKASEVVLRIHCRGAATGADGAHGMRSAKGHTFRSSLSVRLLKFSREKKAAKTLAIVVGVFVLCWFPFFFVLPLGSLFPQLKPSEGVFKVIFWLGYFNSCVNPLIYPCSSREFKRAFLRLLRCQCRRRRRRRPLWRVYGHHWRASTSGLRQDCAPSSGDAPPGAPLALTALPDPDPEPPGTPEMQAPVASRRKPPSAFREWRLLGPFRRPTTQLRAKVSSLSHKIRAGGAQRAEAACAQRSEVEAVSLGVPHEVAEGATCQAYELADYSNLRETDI
Description: Radioligand binding assay (NIMH PDSP). The protocol: (§1) Compound EU93-108 was also tested for inhibition of binding of probes to a range of GPCRs and other targets (Table 4 and Supporting Table S4). […] EU93-108 produced significant displacement of binding probes for the 5-HT2 receptors and α-1-adrenergic receptors, as well as D3, H1, and σ1 receptors. Concentration–response binding competition curves for these targets were used to determine Ki values (Table 4). Given that the brain concentration of EU93-108 achieved 30 min post i.p. injection is 18 μM (Figure 6), the doses that yield our desired antinociceptive effects may engage some of the receptors listed in Table 4.
(§2) Conventional competition and saturation radioligand binding assays were used to determine the affinities of reference standards and EU93-108. Experiments were carried out by the NIMH Psychoactive Drug Screening Program (PDSP) and were performed as previously described.[123]
(§3) The detailed experimental protocols for the radioligand assays are available on the NIMH PDSP website at https://pdsp.unc.edu/pdspweb/content/UNC-CH%20Protocol%20Book.pdf.
(§4) Receptor Mean % Receptor Mean % Receptor Mean %
(§5) Inhibition Inhibition Inhibition
(§6) Supplemental Table S4. Off-Target Actions of EU93-108: Primary GPCR Screen. Cloned human molecular targets were individually expressed and submitted to molecular target-based screening with initial screens performed at a final concentration of 10 µM in quadruplicate. Complete protocols for the assays have been previously published (Besnard J et al. 2012). Where inhibition greater than 50% was measured, secondary screens were performed wherein Ki values were calculated (see Table 4).

A further experiment concerns the target H1 (Homo sapiens, UniProt P35367). Briefly: Radioligand binding assay (NIMH PDSP). Conditions: for Ki: secondary screen, binding competition curve. As to the method:
as §1, §2, §3, §4, §5, §6

Another experiment concerns the target T2, Alpha2B (α2B) (Homo sapiens, UniProt P18089).
T2 sequence (P18089 1-450): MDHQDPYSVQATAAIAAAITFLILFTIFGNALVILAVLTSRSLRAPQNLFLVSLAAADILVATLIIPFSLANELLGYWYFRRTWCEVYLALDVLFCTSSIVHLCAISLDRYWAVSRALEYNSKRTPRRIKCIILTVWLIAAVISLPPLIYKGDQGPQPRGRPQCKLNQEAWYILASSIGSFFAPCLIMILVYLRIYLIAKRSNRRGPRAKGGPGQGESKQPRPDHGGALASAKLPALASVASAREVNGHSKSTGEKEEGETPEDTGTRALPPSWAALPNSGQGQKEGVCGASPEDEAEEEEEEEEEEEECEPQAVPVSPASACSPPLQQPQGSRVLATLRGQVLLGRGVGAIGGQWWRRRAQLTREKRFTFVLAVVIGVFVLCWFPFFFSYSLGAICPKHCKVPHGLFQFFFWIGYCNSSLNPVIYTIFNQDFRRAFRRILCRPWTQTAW
Briefly: Radioligand binding assay (NIMH PDSP). The protocol: as §1, §2, §3, §4, §5, §6

The mark [1] stands for this setting: primary screen, 10 µM, quadruplicate.
[2] abbreviates: ratio of Ki to the IC50 for EU93-108 (555 nM) at GluN2B.
Where [3] appears, read: secondary screen, binding competition curve.

The record followed here is paper PMC9983021, “Novel GluN2B-Selective NMDA Receptor Negative Allosteric Modulator Possesses Intrinsic Analgesic Properties and Enhances Analgesia of Morphine in a Rodent Tail Flick Pain Model” (ACS Chemical Neuroscience, 2023).

The structures appear in SMILES notation. Where two headings read alike, the source gives them in different places.

A word on the inhibition: it is the drop in the measured response relative to a control, in per cent. Higher therefore signals a response far below the control. One may read the Ki as a measure of affinity in units of concentration, obtained from inhibition or displacement.

Sequence of H1 (P35367 whole entry): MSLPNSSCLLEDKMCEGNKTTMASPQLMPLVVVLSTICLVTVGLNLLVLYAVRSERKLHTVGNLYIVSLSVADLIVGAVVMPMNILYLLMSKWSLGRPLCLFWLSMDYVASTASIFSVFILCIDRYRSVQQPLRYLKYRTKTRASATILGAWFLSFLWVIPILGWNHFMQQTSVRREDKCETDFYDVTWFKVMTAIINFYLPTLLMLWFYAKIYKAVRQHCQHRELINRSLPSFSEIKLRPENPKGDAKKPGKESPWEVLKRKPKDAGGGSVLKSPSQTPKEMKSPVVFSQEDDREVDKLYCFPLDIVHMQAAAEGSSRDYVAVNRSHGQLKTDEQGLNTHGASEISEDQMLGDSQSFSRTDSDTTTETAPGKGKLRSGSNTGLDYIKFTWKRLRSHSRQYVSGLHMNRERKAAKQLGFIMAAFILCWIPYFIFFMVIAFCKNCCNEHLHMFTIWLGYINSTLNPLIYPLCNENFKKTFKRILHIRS

With `CS(=O)(=O)Nc1ccc(OC[C@@H](O)CN2CCN(c3ccc(F)c(F)c3)CC2)cc1` [EU93-108, (S)-N-(4-(3-(4-(3,4-Difluorophenyl)piperazin-1-yl)-2-hydroxypropoxy)phenyl)methanesulfonamide], the entries for the “lowest dose that significantly increased latency” value in the experiment with C57BL/6J mice (female mice) and in the experiment on C57BL/6J mice (male mice) were 20 mg/kg and 10 mg/kg, respectively. Moreover, in the experiment on C57BL/6J mice (male mice), the “potency when combined with morphine versus EU93-108 alone” value is given as “approximately 3 fold”. The figures for the inhibition at 10 µM at Alpha1D (α1D) (setting [1]), on H1 (setting [1]) and at Alpha2B (α2B) (setting [1]) were 76.7%, 76.9% and 68%, respectively. Besides, the “Ki/IC50 of EU93-108” value at Alpha1D (α1D) (setting [2]) worked out at 0.65; on H1 (setting [2]) it was 0.46; at Alpha2B (α2B) (setting [2]), 1.31. Moreover, the Ki was 359 nM at Alpha1D (α1D) (setting [3]), 254 nM on H1 (read-out: Ki), 257 nM on H1 (read-out: log(Ki) (converted)) and 728 nM on Alpha2B (α2B) (setting [3]).
